# Data taken from patent publication US9085570B2, “Substituted benzamides and their uses” (The Board of Trustees of the Leland Stanford Junior …, priority 2010, dated 2015).
# pIC50: −log10 of the molar value.
# Test system: RCC4
# Experiment: XTT cell viability assay in RCC4 cells (VHL-deficient renal carcinoma)
# Format: cell-based
# Details: Homo sapiens, 96 h, four days drug exposure
# Procedure: (§1) Cell Culture. RCC4 parental and RCC4 with VHL-reintroduced (RCC4/VHL), SN12C and SN12C-CSCG-VHL shRNA were maintained in DMEM supplemented with 10% FCS.
# (§2) Cell Viability Assays. For 2,3-bis[2-methoxy-4-nitro-5-sulfophenyl]-2H-tetrazolium-5-carboxanilide (XTT) assays, five thousand cells were plated in 96-well plates. The next day, vehicle (DMSO) or drug was added by serial dilution. Four days later, media were aspirated, XTT solution (0.3 mg/ml of XTT (Sigma), […] N-methyl dibenxopyrazine methyl sulfate (Simga) in phenol red-free media) was added, and the plates were incubated at 37° C. for 1-2 hours. Metabolism of XTT was quantified by measuring the absorbance at 450 nm IC50s were calculated using linear interpolation. For clonogenic survival assays, three hundred cells were plated per 60 mm tissue culture dish. The cells were allowed to attach overnight and then treated with vehicle or drug for 14 days. Colonies were fixed and stained with crystal violet (0.1% crystal violet in 95% ethanol). All conditions were measured in triplicate and each experiment was done in duplicate or triplicate. To determine necrosis, cells were treated with drug for a given time point. Media and cells were collected, centrifugated, and resuspended in 0.4% trypan blue (Invitrogen). Live and dead cells were counted on a hematocytometer.
# (§3) The designation A reflects an IC50 of <1 nM; B reflects an IC50 ranging from 1 to 20 nM; and C is an IC50 of >20 nM. The designation “a” reflects a ratio of RCC4/RCC-VHL+ranging from 1 to ≦10; “b” reflects from 10 to ≦100; “c” reflects a ratio of >100. Compounds I-29 have an IC50 value of ≦10 μM when tested in the above assay.
row,pIC50,Compound
1,< 7.70,"O=C(Nc1cccnc1)c1ccc(CNS(=O)(=O)c2ccc(Cl)nc2)cc1 [II-2, 4-({[(6-Chloro-3-pyridinyl)sulfonyl]amino}methyl)-N-(3-pyridinyl)benzamide]"
2,< 7.70,"Cc1ncc(S(=O)(=O)NCc2ccc(C(=O)Nc3cccnc3)cc2)n1C [II-6, 4-({[(1,2-Dimethyl-1H-imidazol-5-yl)sulfonyl]amino}methyl)-N-(3-pyridinyl)benzamide]"
3,< 7.70,"O=C(Nc1cccnc1)c1ccc(CNS(=O)(=O)c2nnc[nH]2)cc1 [II-7, N-(3-pyridinyl)-4-{[(4H-1,2,4-triazol-3-ylsulfonyl)amino]methyl}benzamide]"

# Test system: RCC4 with VHL-reintroduced (RCC4/VHL)
# Experiment: XTT cell viability assay in RCC4/VHL cells, selectivity ratio versus RCC4
# Format: cell-based
# Details: Ratio = IC50RCC4/VHL/IC50RCC4
# Procedure: as §1, §2, §3
row,Compound,Ratio
1,"O=C(Nc1cccnc1)c1ccc(CNS(=O)(=O)c2cccnc2)cc1 [II-1, N-(3-Pyridinyl)-4-{[(3-pyridylsulfonyl)amino]methyl}benzamide]",a (a ratio of RCC4/RCC-VHL+ranging from 1 to ≦10)
2,"O=C(Nc1cccnc1)c1ccc(CNS(=O)(=O)c2ccc(Oc3ccccc3)nc2)cc1 [II-3, 4-({[(6-Phenoxy-3-pyridinyl)sulfonyl]amino}methyl)-N-(3-pyridinyl)benzamide]",a (a ratio of RCC4/RCC-VHL+ranging from 1 to ≦10)
3,"O=C(Nc1cccnc1)c1ccc(CNS(=O)(=O)c2cccs2)cc1 [II-4, N-(3-Pyridinyl)-4-{[(2-thienylsulfonyl)amino]methyl}benzamide]",a (a ratio of RCC4/RCC-VHL+ranging from 1 to ≦10)
4,"O=C(Nc1cccnc1)c1ccc(CNS(=O)(=O)c2ccsc2)cc1 [II-5, N-(3-Pyridinyl)-4-{[(3-thienylsulfonyl)amino]methyl}benzamide]",a (a ratio of RCC4/RCC-VHL+ranging from 1 to ≦10)

# Test system: not given
# Experiment: not given
# Details: not given
row,melting point,Compound
1,229 to 231 °C,"Cc1ccc(S(=O)(=O)Cc2nc(-c3ccc(C(=O)Nc4ccncc4)cc3)oc2C)cc1 [Example 2, 4-(5-Methyl-4-{[(4-methylphenyl)sulfonyl]methyl}-1,3-oxazol-2-yl)-N-(4-pyridinyl)benzamide]"
2,195 to 197 °C,"Cc1ccc(S(=O)(=O)Cc2nc(-c3ccc(C(=O)N(C)c4cccnc4)cc3)oc2C)cc1 [Example 3, N-Methyl-4-(5-methyl-4-{[(4-methylphenyl)sulfonyl]methyl}-1,3-oxazol-2-yl)-N-(3-pyridinyl)benzamide]"
3,169 to 172 °C,"Cc1ccc(S(=O)(=O)Cc2nc(-c3ccc(C(=O)NCc4ccncc4)cc3)oc2C)cc1 [Example 6, 4-(5-Methyl-4-{[(4-methylphenyl)sulfonyl]methyl}-1,3-oxazol-2-yl)-N-(4-pyridinylmethyl)benzamide]"
4,77 to 80 °C,"Cc1ccc(S(=O)(=O)Cc2nc(-c3ccc(C(=O)N(C)Cc4cccnc4)cc3)oc2C)cc1 [Example 7, N-Methyl-4-(5-methyl-4-{[(4-methylphenyl)sulfonyl]methyl}-1,3-oxazol-2-yl)-N-(3-pyridinylmethyl)benzamide]"
5,204 to 206 °C,"Cc1ccc(S(=O)(=O)Cc2nc(-c3ccc(C(=O)NCc4cnccn4)cc3)oc2C)cc1 [Example 9, 4-(5-Methyl-4-{[(4-methylphenyl)sulfonyl]methyl}-1,3-oxazol-2-yl)-N-(2-pyrazinylmethyl)benzamide]"
6,196 to 198 °C,"Cc1oc(-c2ccc(C(=O)NCc3cccnc3)cc2)nc1CS(=O)(=O)c1ccccc1 [Example 12, 4-{5-Methyl-4-[(phenylsulfonyl)methyl]-1,3-oxazol-2-yl}-N-(3-pyridinylmethyl)benzamide]"
7,220 to 222 °C,"Cc1oc(-c2ccc(C(=O)NCc3cccnc3)cc2)nc1CS(=O)(=O)c1ccc(Cl)cc1 [Example 13, 4-(4-{[(4-Chlorophenyl)sulfonyl]methyl}-5-methyl-1,3-oxazol-2-yl)-N-(3-pyridinylmethyl)benzamide]"
8,177 to 180 °C,"Cc1oc(-c2ccc(C(=O)NCc3cccnc3)cc2)nc1CS(=O)(=O)c1ccc(C(C)(C)C)cc1 [Example 14, 4-(4-{[(4-tert-Butylphenyl)sulfonyl]methyl}-5-methyl-1,3-oxazol-2-yl)-N-(3-pyridinylmethyl)benzamide]"
9,188 to 190 °C,"Cc1cc(C)cc(S(=O)(=O)Cc2nc(-c3ccc(C(=O)NCc4cccnc4)cc3)oc2C)c1 [Example 15, 4-(4-{[(3,5-Dimethylphenyl)sulfonyl]methyl}-5-methyl-1,3-oxazol-2-yl)-N-(3-pyridinylmethyl)benzamide]"
10,224 to 227 °C,"Cc1oc(-c2ccc(C(=O)NCc3cccnc3)cc2)nc1CS(=O)(=O)c1ccc(Br)cc1 [Example 16, 4-(4-{[(4-Bromophenyl)sulfonyl]methyl}-5-methyl-1,3-oxazol-2-yl)-N-(3-pyridinylmethyl)benzamide]"
11,189 to 191 °C,"COc1ccc(S(=O)(=O)Cc2nc(-c3ccc(C(=O)NCc4cccnc4)cc3)oc2C)cc1 [Example 18, 4-(4-{[(4-Methoxyphenyl)sulfonyl]methyl}-5-methyl-1,3-oxazol-2-yl)-N-(3-pyridinylmethyl)benzamide]"
12,143 to 145 °C,"COc1cccc(S(=O)(=O)Cc2nc(-c3ccc(C(=O)NCc4cccnc4)cc3)oc2C)c1 [Example 19, 4-(5-Methyl-4-{[(3-methoxyphenyl)sulfonyl]methyl}-1,3-oxazol-2-yl)-N-(3-pyridinylmethyl)benzamide]"
13,218 to 220 °C,"Cc1oc(-c2ccc(C(=O)NCc3cccnc3)cc2)nc1CS(=O)(=O)c1ccc(F)cc1 [Example 22, 4-(4-{[(4-Fluorophenyl)sulfonyl]methyl}-5-methyl-1,3-oxazol-2-yl)-N-(3-pyridinylmethyl)benzamide]"
14,208 to 210 °C,"Cc1oc(-c2ccc(C(=O)NCc3cccnc3)cc2)nc1CS(=O)(=O)c1ccc(N2CCOCC2)cc1 [Example 24, 4-[5-Methyl-4-({[4-(4-morpholinyl)phenyl]sulfonyl}methyl)-1,3-oxazol-2-yl]-N-(3-pyridinylmethyl)benzamide]"
15,178 to 181 °C,"Cc1ccc(S(=O)(=O)Cc2csc(-c3ccc(C(=O)NCc4cccnc4)cc3)n2)cc1 [Example 25, 4-(4-{[(4-Methylphenyl)sulfonyl]methyl}-1,3-thiazol-2-yl)-N-(3-pyridinylmethyl)benzamide]"
16,234 to 237 °C,"Cc1oc(-c2ccc(C(=O)NCc3ccccc3)cc2)nc1CS(=O)(=O)c1ccc(Br)cc1 [Example 27, N-Benzyl-4-(4-{[(4-bromophenyl)sulfonyl]methyl}-5-methyl-1,3-oxazol-2-yl)benzamide]"
17,226 to 228 °C,"O=C(Nc1cccnc1)c1ccc(CNS(=O)(=O)c2ccc(Cl)nc2)cc1 [II-2, 4-({[(6-Chloro-3-pyridinyl)sulfonyl]amino}methyl)-N-(3-pyridinyl)benzamide]"
18,238 to 240 °C,"Cc1ncc(S(=O)(=O)NCc2ccc(C(=O)Nc3cccnc3)cc2)n1C [II-6, 4-({[(1,2-Dimethyl-1H-imidazol-5-yl)sulfonyl]amino}methyl)-N-(3-pyridinyl)benzamide]"

# Second part, the compound before the results:
row,Compound,melting point
1,"Cc1ccc(S(=O)(=O)Cc2nc(-c3ccc(C(=O)Nc4cccnc4)cc3)oc2C)cc1 [Example 1, 4-(5-Methyl-4-{[(4-methylphenyl)sulfonyl]methyl}-1,3-oxazol-2-yl)-N-(3-pyridinyl)benzamide]",248 to 250 °C
2,"Cc1ccc(S(=O)(=O)Cc2nc(-c3ccc(C(=O)NCc4ccccn4)cc3)oc2C)cc1 [Example 4, 4-(5-Methyl-4-{[(4-methylphenyl)sulfonyl]methyl}-1,3-oxazol-2-yl)-N-(2-pyridinylmethyl)benzamide]",154 to 155 °C
3,"Cc1ccc(S(=O)(=O)Cc2nc(-c3ccc(C(=O)NCCc4cccnc4)cc3)oc2C)cc1 [Example 8, 4-(5-Methyl-4-{[(4-methylphenyl)sulfonyl]methyl}-1,3-oxazol-2-yl)-N-[2-(3-pyridinyl)ethyl]benzamide]",207 to 208 °C
4,"Cc1ccc(S(=O)(=O)Cc2nc(-c3ccc(C(=O)NCc4nccn4C)cc3)oc2C)cc1 [Example 10, N-[(1-Methyl-1H-imidazol-2-yl)methyl]-4-(5-methyl-4-{[(4-methylphenyl)sulfonyl]methyl}-1,3-oxazol-2-yl)benzamide]",190 to 192 °C
5,"Cc1ccc(S(=O)(=O)Cc2nc(-c3ccc(C(=O)NCc4cncn4C)cc3)oc2C)cc1 [Example 11, N-[(1-Methyl-1H-imidazol-5-yl)methyl]-4-(5-methyl-4-{[(4-methylphenyl)sulfonyl]methyl}-1,3-oxazol-2-yl)benzamide]",240 to 242 °C
6,"Cc1cccc(S(=O)(=O)Cc2nc(-c3ccc(C(=O)NCc4cccnc4)cc3)oc2C)c1 [Example 17, 4-(5-Methyl-4-{[(3-methylphenyl)sulfonyl]methyl}-1,3-oxazol-2-yl)-N-(3-pyridinylmethyl)benzamide]",179 to 181 °C
7,"COc1ccc(S(=O)(=O)Cc2nc(-c3ccc(C(=O)NCc4cccnc4)cc3)oc2C)cc1OC [Example 20, 4-(4-{[(3,4-Dimethoxyphenyl)sulfonyl]methyl}-5-methyl-1,3-oxazol-2-yl)-N-(3-pyridinylmethyl)benzamide]",104 to 108 °C
8,"Cc1oc(-c2ccc(C(=O)NCc3cccnc3)cc2)nc1CS(=O)(=O)c1ccc(N2CCN(C)CC2)cc1 [Example 23, 4-[5-Methyl-4-({[4-(4-methyl-1-piperazinyl)phenyl]sulfonyl}methyl)-1,3-oxazol-2-yl]-N-(3-pyridinylmethyl)benzamide]",210 to 215 °C
9,"O=C(Nc1cccnc1)c1ccc(CNS(=O)(=O)c2nnc[nH]2)cc1 [II-7, N-(3-pyridinyl)-4-{[(4H-1,2,4-triazol-3-ylsulfonyl)amino]methyl}benzamide]",266 to 269 °C
